# Test results published in PubChem BioAssay AID2742 (NMMLSC, 2010).
# Values joined by “and” are separate entries in the source; they are usually repeats but may differ in a detail not shown here. Identical values can stand only once. Active and inactive are the calls of the source.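 The calls were made as follows: active = fitted half-maximal concentration for changing background-corrected GFP signal at or below a set limit; inactive = the rest.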
# Assays:
# [1] = tested on: S. cerevisiae MEP2-GFP strain, flow cytometry fluorescence, 3 h; assay: TOR pathway reporter MEP2-GFP, concentration series – S. cerevisiae, flow cytometry GFP, MLPCN hits, dose response (AID 2742);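 as to EC50: curve fit on GFP signal minus compound signal in parental s288c strain lacking GFP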;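 as to GFP fluorescence (kMESF), higher = increase: GFP tag reports level of MEP2 protein as a downstream target of TOR signalling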
# [2] = as above; details: S. cerevisiae MEP2-GFP strain, flow cytometry fluorescence, 3 h; at 33 µM (top of the series)
SMILES,EC50 [1] [µM],"GFP fluorescence (kMESF), higher = increase [2]"
CC1(C)C[C@H]2C=C(C=O)[C@]3(C=O)C[C@]3(C)[C@H]2C1,1.26,–
O=C(Oc1ccnc2cc(Cl)ccc12)N1CCCCCC1,3.86,–
CNc1nc(N)c([N+](=O)[O-])c(Nc2cccc(F)c2)n1,6.85,–
COc1ccc(CCNC2=C(Cl)C(=O)N(CCc3ccc(OC)c(OC)c3)C2=O)cc1OC,–,2.9 kMESF (inactive)
COc1cc(/C=C2\C(=O)ON=C2c2ccccc2)cc(OC)c1OC,–,3.21 kMESF (inactive)
Cc1[nH][nH]c(=O)c1C(c1ccc(-c2ccc(Cl)cc2)o1)c1c(C)[nH][nH]c1=O,–,3.72 kMESF (inactive)
Cc1ccc(C(=O)NNC(=S)NC(=O)c2ccco2)cc1,–,4.91 kMESF (inactive)
O=C(/C=C/c1ccccn1)c1cc(Br)ccc1O,–,4.38 kMESF (inactive)
N#Cc1ccc(N=c2ssnc2Cl)cc1,–,3.37 kMESF (inactive)
Oc1c(CN2CCCCC2)cc(Br)c2cccnc12,–,5.16 kMESF (inactive)
CC1=CC(=O)C(C(C)C)=C/C1=N/OS(=O)(=O)c1ccccc1,–,3.47 kMESF (inactive)
Cc1cc(C)c(C)c(S(=O)(=O)ON2C(=O)c3ccccc3C2=O)c1C,–,4.23 kMESF (inactive)
COc1ccc(C2(C)ON(c3ccccc3C(F)(F)F)C2=O)cc1 (centres undefined),–,2.87 kMESF (inactive)
CC1(C(=O)NC(=S)NNC(=O)c2ccncc2)CCCCC1,–,3.51 kMESF (inactive)
COc1ccc2c(/C=C/c3cc[n+](C)cc3)c[nH]c2c1,–,4.86 kMESF (inactive)
O=C1C=C(c2ccccc2)C(=O)N1Nc1ccccc1,–,6.2 kMESF (inactive)
O=C(OCC(=O)N1CCN(C(=O)c2ccco2)CC1)c1cc(-c2ccc(F)cc2)nc2ccccc12,–,4.46 kMESF (inactive) and 3.18 kMESF (inactive)
O=C(C#Cc1cccc([N+](=O)[O-])c1)c1ccccc1,–,3.98 kMESF (inactive)
O=C(Sc1cccc2cccnc12)c1ccccc1Br,–,4.93 kMESF (inactive)
CCCc1cc(NCc2ccccn2)n2nc(C)c(-c3ccccc3)c2n1,–,2.86 kMESF (inactive)
COc1ccc(N2CCN(C(=O)c3ccc(Br)cc3)CC2)c([N+](=O)[O-])c1,–,2.28 kMESF (inactive)

SMILES,EC50 [1] [µM],"GFP fluorescence (kMESF), higher = increase [2]"
COc1ccc([N+](=O)[O-])c(S(=O)(=O)c2ccccc2)n1,–,3.41 kMESF (inactive)
O=C(COc1ccccc1)NNC(=S)NC(=O)c1ccccc1,–,2.59 kMESF (inactive)
Cc1[nH][nH]c(=O)c1C(c1ccc(-c2ccc(Cl)c(Cl)c2)o1)c1c(C)[nH][nH]c1=O,–,4.42 kMESF (inactive)
Cc1ccc(/C=C2\SC(=S)N(Cc3ccccc3)C2=O)o1,–,9.98 kMESF (inactive)
COc1ccc(C(=O)NC(=S)NNC(=O)c2cnccn2)cc1OC,–,2.46 kMESF (inactive)
CCN(CC(=O)NC(C)(C)C)C(=O)COc1c(Cl)cc(Cl)c2ccc(C)nc12,–,6.41 kMESF (inactive)
COc1ccc2c(c1)S/C(=C\C(=O)c1ccncc1)N2C,–,2.67 kMESF (inactive)
Cc1ccc(C(=O)Sc2cccccc2=O)cc1,–,3.82 kMESF (inactive)
O=C1c2ccccc2C(=O)N1OS(=O)(=O)c1ccc(F)cc1,–,3.26 kMESF (inactive)
COC(=O)CCCC1=CC2=CC(=O)C(C)(OC(=O)CCc3ccccc3)C(=O)C2=CO1 (centres undefined),–,1.97 kMESF (inactive)
CC(C)CC(=O)NC(=S)Nc1nc(-c2ccccc2)cs1,–,2.07 kMESF (inactive)
O=C(OCC(=O)N1CCN(C(=O)c2ccco2)CC1)c1cc(-c2cccc(Br)c2)nc2ccccc12,–,4.47 kMESF (inactive)
CCCc1ccc(OCC(=O)NNC(=S)NC(=O)c2ccco2)cc1,–,9.05 kMESF (inactive)
CCc1nc2ccccc2c(=O)n1NC(=O)c1c(O)c2ccccc2n(CC)c1=O,–,2.98 kMESF (inactive)
CCOC(=O)C(C(=O)OCC)C(C(=O)OCC)N1CCOCC1 (centres undefined),–,4.83 kMESF (inactive)
COc1ccc(N2C(=O)C(Cl)=C(Nc3c(C)n(C)n(-c4ccccc4)c3=O)C2=O)cc1,–,2.4 kMESF (inactive)
Cc1ccc(NC(=O)ON=C2CCCC2)cc1,–,3.26 kMESF (inactive)
COc1ccc(C2=CC3=C(Br)C(=O)C(C)(O)C(=O)C3=CO2)cc1 (centres undefined),–,-0.97 kMESF (inactive)
COc1cccc(/C=N/Nc2ncc(C(F)(F)F)cc2Cl)c1O,–,3.26 kMESF (inactive)
Cc1cccc2c1NC(=O)/C2=C\C(=O)c1cccs1,–,4.26 kMESF (inactive)
CCN(CC)c1ccc(/C=C2\C(=O)c3ccc(C(=O)O)cc3C2=O)cc1,–,47.5 kMESF (inactive)

SMILES,EC50 [1] [µM],"GFP fluorescence (kMESF), higher = increase [2]"
COc1ccc(Cl)cc1C(Nc1cccnc1)c1ccc2cccnc2c1O (centres undefined),–,5.91 kMESF (inactive)
Cc1ccc(C2=NOC(=O)/C2=C\c2ccc(C)o2)cc1,–,2.14 kMESF (inactive)
Cc1ccc(C2=NN(S(C)(=O)=O)C(c3ccc4c(c3)OCO4)C2)cc1 (centres undefined),–,2.44 kMESF (inactive)
Oc1c(CN2CCN(c3ccccc3)CC2)cc(Br)c2cccnc12,–,7.37 kMESF (inactive)
O=C(Nc1ccccc1)c1nnsc1S(=O)(=O)c1ccc(Cl)cc1,–,6.03 kMESF (inactive)
Cc1cc(S(=O)(=O)ON2C(=O)c3ccccc3C2=O)ccc1F,–,4.9 kMESF (inactive)
O=C(Nc1nnc(-c2ccc(Cl)cc2)o1)c1ccccc1Br,–,4.01 kMESF (inactive)
CN1C(=O)/C(=N\OC(=O)c2cccc3ccccc23)c2ccccc21,–,3.68 kMESF (inactive)
CC1=C/C(=N\OS(=O)(=O)c2ccccc2)C(C)=CC1=O,–,-2.25 kMESF (inactive)
Cc1ccccc1OCCOC(=O)c1ccc(S(=O)(=O)N2CCCC2)cc1,–,1.52 kMESF (inactive)
CSC1=NS(=O)(=O)c2c(C)nn(C)c2S1,–,4.13 kMESF (inactive)
CCc1ccc(C(=O)/C=C/c2ccc([N+](=O)[O-])o2)cc1,–,6.79 kMESF (inactive)
N/C(Cc1ccc(Cl)cc1Cl)=N\OC(=O)c1cccs1,–,4.76 kMESF (inactive)
CC(Oc1ccc2ccccc2c1)C(=O)NNC(=S)NC(=O)c1ccco1 (centres undefined),–,4.16 kMESF (inactive)
Cc1ccc(S(=O)(=O)/N=C(\Sc2ccccc2)c2ccccc2)cc1,–,3.88 kMESF (inactive)
O=C(Nc1ccc(NC(=O)c2cc3ccccc3o2)cc1)c1ccco1,–,2.1 kMESF (inactive)
CCOc1ccc(N/N=C(/C#N)C(N)=O)cc1,–,2.43 kMESF (inactive)
CN(C)c1ccc(N=Cc2nc(-c3ccccc3)oc2OC(=O)c2ccccc2)cc1,–,3.17 kMESF (inactive)
CCCCCCCCCCCCCCCC[n+]1cccc2ccccc21,–,1.62 kMESF (inactive)
N/C(Cc1ccc(Cl)cc1)=N\OC(=O)c1cccc2ccccc12,–,3.73 kMESF (inactive)
O=C(COc1c(Br)cc(Br)c2cccnc12)N1CCc2ccccc2C1,–,4.11 kMESF (inactive)

SMILES,EC50 [1] [µM],"GFP fluorescence (kMESF), higher = increase [2]"
C#CCOCCOCCOCCNc1nc(N2CCN(C(=O)CCCCCCCCCCNC(=O)[C@H](CCCCN)n3cc(C)nn3)CC2)nc(N2CCN(C(=O)CCCCCCCCCCNC(=O)[C@H](CCCN=C(N)N)n3cc(C[C@@H](C)CC)nn3)CC2)n1,–,3.34 kMESF (inactive)
Cc1c(N2C(=O)/C(=C\c3ccccc3O)SC2=S)c(=O)n(-c2ccccc2)n1C,–,4.71 kMESF (inactive)
COc1cc(/C=C2/C(=O)ON=C2c2ccccc2)ccc1O,–,3.68 kMESF (inactive)
O=C1Nc2ccccc2/C1=C\C(=O)c1ccccc1,–,5.08 kMESF (inactive)
Cc1ccc2nc(/C(C#N)=C/c3ccc(O)c(O)c3)[nH]c2c1,–,4.49 kMESF (inactive)
[O-][n+]1cccc2c(Br)cc(Br)c(O)c21,–,5.76 kMESF (inactive)
CS(=O)(=O)c1sc(C#N)c2c1C(=O)CC(c1ccccc1)C2 (centres undefined),–,4.8 kMESF (inactive)
COc1cccc(N=Cc2nc(-c3ccccc3)oc2OC(C)=O)c1,–,3.64 kMESF (inactive)
CC(C)(C)c1ccc(NC(=O)COC(=O)c2ccc([N+](=O)[O-])s2)cc1,–,2.3 kMESF (inactive)
c1ccc(-c2cccc(-c3ccccn3)n2)nc1,–,2.86 kMESF (inactive)
Cc1ccc(/C=C2/SC(=S)N(C3CCCCC3)C2=O)o1,–,4.94 kMESF (inactive)
O=[N+]([O-])c1cc(F)c2cccnc2c1O,–,5.96 kMESF (inactive)
O=C(Nc1ccc(N2CCOCC2)cc1)C1CCN(S(=O)(=O)c2ccc3c(c2)OCCO3)CC1,–,2 kMESF (inactive)
Cc1[nH]c2ccccc2c1C(=O)COC(=O)c1ccc([N+](=O)[O-])s1,–,0.4 kMESF (inactive)
Cc1ccc(NC(=O)c2ccc(Cl)c(N3C(=O)C=CC3=O)c2)cc1,–,5.91 kMESF (inactive)
CC(C)(C)c1nnc(N/N=C/c2cc(Br)ccc2O)n(N)c1=O,–,2.57 kMESF (inactive)
Cc1ccc(S(=O)(=O)N2CCCC2C(=O)NCc2ccncc2)cc1 (centres undefined),–,2.1 kMESF (inactive)
Cc1ccccc1OCC(=O)NNC(=S)NC(=O)c1ccco1,–,5.41 kMESF (inactive)
O=C(CS(=O)c1ccccc1[N+](=O)[O-])Oc1ccc(Br)cc1 (centres undefined),–,4.43 kMESF (inactive)
O=C(NC(=S)NNC(=O)c1ccc(Cl)cc1Cl)c1cccnc1,–,1.66 kMESF (inactive)
O=C(Oc1cccc2cccnc12)c1ccc(Br)o1,–,1.82 kMESF (inactive)
